Earlier results as cited in patent US20180228757A1, “EDIBLE PARTICLES COMPRISING A POLYSACCHARIDE AND A LIPID” (PERORA GMBH, priority 2015, published 2018).

Details: infusion into the duodenum by means of a feeding tube

Row | SMILES | satiety signalling
1 | CCCCCCCCCCCC(=O)O [lauric acid] | strong satiety signalling
2 | CCCCCCCC/C=C\CCCCCCCC(=O)O [oleic acid] | strong satiety signalling
